molecular target: T1, GPR119 receptor (Mesocricetus auratus, UniProt A0A1U8CD06); experiment: cAMP assay in HIT-T15 hamster pancreatic islet cells (functional agonist activity); format: cell-based; details: HIT-T15 cells endogenously expressing GPR119; 30 min at 25° C.; intracellular cAMP
T1 construct: which endogenously express the GPR119 receptor; host or cells: HIT-T15 hamster pancreatic islet cells
T1 sequence (A0A1U8CD06 1-334): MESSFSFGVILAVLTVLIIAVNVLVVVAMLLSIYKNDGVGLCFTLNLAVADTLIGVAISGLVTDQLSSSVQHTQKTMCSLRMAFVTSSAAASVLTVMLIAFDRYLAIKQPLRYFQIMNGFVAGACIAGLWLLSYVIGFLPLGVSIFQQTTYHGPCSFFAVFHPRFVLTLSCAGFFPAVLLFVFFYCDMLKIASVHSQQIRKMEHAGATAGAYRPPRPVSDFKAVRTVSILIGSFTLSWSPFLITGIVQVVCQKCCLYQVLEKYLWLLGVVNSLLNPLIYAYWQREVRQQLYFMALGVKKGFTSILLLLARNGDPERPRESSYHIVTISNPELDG
Procedure, shortened: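 HIT-T15 cells (endogenous GPR119), 9000/well, exposed to agonist 30 min at 25° C with 0.5 mM IBMX and 0.5 mg/ml BSA. Lysate cAMP measured by chemiluminescent competitive immunoassay; EC50 from curve fit.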

Compound	EC50 [µM]
CC(C)c1noc(N2CCC(n3ncc4c(Oc5ccc(S(C)(=O)=O)c(F)c5)ncnc43)CC2)n1 [Example 128, 4-(3-Fluoro-4-methanesulfonyl-phenoxy)-1-[1-(3-isopropyl-[1,2,4]oxadiazol-5-yl)-piperidin-4-yl]-1H-pyrazolo[3,4-d]pyrimidine]	0.16
CS(=O)(=O)c1ccc(Oc2ncnc3c2cnn3C2CCN(C(=O)OC(C(F)(F)F)C(F)(F)F)CC2)cc1 [Example 112, 4-[4-(4-Methanesulfonyl-phenoxy)-pyrazolo[3,4-d]pyrimidin-1-yl]-piperidine-1-carboxylic acid 2,2,2-trifluoro-1-trifluoromethyl-ethyl ester]	0.5
Cc1nc(-n2cncn2)ccc1Oc1ncnc2c1cnn2C1CCN(C(=O)OC(C)C)CC1 [Example 30, 4-[4-(2-Methyl-6-[1,2,4]triazol-1-yl-pyridin-3-yloxy)-pyrazolo[3,4-d]pyrimidin-1-yl]-piperidine-1-carboxylic acid isopropyl ester]	0.86
CC(C)(C)OC(=O)N1CCC(n2ncc3c(Oc4ccc(-n5cnnn5)cc4)ncnc32)CC1 [Example 83, 4-[4-(4-Tetrazol-1-yl-phenoxy)-pyrazolo[3,4-d]pyrimidin-1-yl]-piperidine-1-carboxylic acid tert-butyl ester]	1.6
COc1ccc(Oc2ncnc3c2cnn3C2CCN(C(=O)OC(C)(C)C)CC2)c(Cl)c1 [Example 44, 4-[4-(2-Chloro-4-methoxy-phenoxy)-pyrazolo[3,4-d]pyrimidin-1-yl]-piperidine-1-carboxylic acid tert-butyl ester]	0.19

Further compounds by falling EC50, results first:

EC50 [µM]	Compound
1.8	CC(C)(C)OC(=O)N1CCC(n2ncc3c(Oc4ccc(-n5ncnn5)cc4)ncnc32)CC1 [Example 82, 4-[4-(4-Tetrazol-2-yl-phenoxy)-pyrazolo[3,4-d]pyrimidin-1-yl]-piperidine-1-carboxylic acid tert-butyl ester]
0.99	CC(C)(C)OC(=O)N1CCC(n2ncc3c(Oc4ccc5sccc5c4)ncnc32)CC1 [Example 77, 4-[4-(Benzo[b]thiophen-5-yloxy)-pyrazolo[3,4-d]pyrimidin-1-yl]-piperidine-1-carboxylic acid tert-butyl ester]
0.71	CS(=O)(=O)c1ccc(Oc2ncnc3c2cnn3C2CCN(c3ccc(Cl)nn3)CC2)cc1 [Example 130, 1-[1-(6-Chloro-pyridazin-3-yl)-piperidin-4-yl]-4-(4-methanesulfonyl-phenoxy)-1H-pyrazolo[3,4-d]pyrimidine]
0.53	Cc1nc(Cl)ccc1Oc1ncnc2c1cnn2C1CCN(C(=O)OC(C)(C)C)CC1 [Example 97, 4-[4-(6-Chloro-2-methyl-pyridin-3-yloxy)-pyrazolo[3,4-d]pyrimidin-1-yl]-piperidine-1-carboxylic acid tert-butyl ester]
0.37	CC(C)(C)OC(=O)N1CCCC(n2ncc3c(Oc4ccc(S(C)(=O)=O)cc4)ncnc32)C1 (racemic) [Example 87, 3-[4-(4-Methanesulfonyl-phenoxy)-pyrazolo[3,4-d]pyrimidin-1-yl]-piperidine-1-carboxylic acid tert-butyl ester]
0.083	CC(C)(C)OC(=O)N1CCC(n2ncc3c(Oc4ccc(C(F)(F)F)cc4Cl)ncnc32)CC1 [Example 54, 4-[4-(2-Chloro-4-trifluoromethyl-phenoxy)-pyrazolo[3,4-d]pyrimidin-1-yl]-piperidine-1-carboxylic acid tert-butyl ester]
0.061	CC(C)(C)OC(=O)N1CCC(n2ncc3c(Oc4ccccc4C#N)ncnc32)CC1 [Example 45, 4-[4-(2-Cyano-phenoxy)-pyrazolo[3,4-d]pyrimidin-1-yl]-piperidine-1-carboxylic acid tert-butyl ester]
0.048	CC(C)(C)OC(=O)N1CCC(n2ncc3c(Oc4ccc(S(C)(=O)=O)cc4F)ncnc32)CC1 [Example 60, 4-[4-(2-Fluoro-4-methanesulfonyl-phenoxy)-pyrazolo[3,4-d]pyrimidin-1-yl]-piperidine-1-carboxylic acid tert-butyl ester]
